Reference: ChEMBL document CHEMBL4229324, “Synthesis and antitumor activities of 1,2,3-triazines and their benzo- and heterofused derivatives” (Eur J Med Chem, 2017)
≈ marks a conversion by molar mass, not a printed value.

How the values were obtained:
[1] = molecular target: Ribosomal protein S6 kinase beta-1 (Homo sapiens, UniProt P23443, T412E); assay: Inhibition of N-terminal 6His-tagged human recombinant p70S6K T412E mutant (1 to 421 residues) in Sf21 insect cells using FITC-AHA-AKRRRLSSLRA-OH substrate peptide incubated for 90 mins
Sequence of Ribosomal protein S6 kinase beta-1 (P23443 whole entry T412E, the tested form may be a part): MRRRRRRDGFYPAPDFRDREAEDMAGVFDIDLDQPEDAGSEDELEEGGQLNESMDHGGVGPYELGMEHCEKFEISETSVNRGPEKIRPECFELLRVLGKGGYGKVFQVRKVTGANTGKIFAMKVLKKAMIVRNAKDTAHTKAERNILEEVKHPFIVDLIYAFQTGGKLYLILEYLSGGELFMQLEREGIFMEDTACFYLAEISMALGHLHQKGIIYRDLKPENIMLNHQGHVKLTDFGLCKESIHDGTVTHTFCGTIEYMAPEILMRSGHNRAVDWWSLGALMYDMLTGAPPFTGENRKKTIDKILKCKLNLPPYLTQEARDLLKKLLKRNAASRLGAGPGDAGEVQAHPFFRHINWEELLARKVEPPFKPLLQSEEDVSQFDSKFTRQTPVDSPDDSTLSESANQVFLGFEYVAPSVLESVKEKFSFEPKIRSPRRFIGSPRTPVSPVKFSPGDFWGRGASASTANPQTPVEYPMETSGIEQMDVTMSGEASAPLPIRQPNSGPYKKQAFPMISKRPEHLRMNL

[2] = species: Homo sapiens; assay: Antiproliferative activity against HMVEC incubated for 4 days by MTT assay; assay type: functional
[3] = Acute toxicity in white mongrel mouse administered as single intraperitoneal injection; assay type: organism-based; details: in vivo, ip
[4] = system: B16-F10; assay: Antiproliferative activity against mouse B16F10 cells incubated for 4 days by MTT assay; assay type: functional, cell-based; details: B16-F10, 96 h
[5] = system: DU-145; assay: Antiproliferative activity against human DU145 cells incubated for 4 days by MTT assay; assay type: functional, cell-based; details: DU-145, 96 h
[6] = system: Lewis lung carcinoma cell line; assay: Antiproliferative activity against mouse LL/2 cells incubated for 4 days by MTT assay; assay type: functional, cell-based; details: 96 h
[7] = system: PC-3; assay: Antiproliferative activity against human PC3 cells incubated for 4 days by MTT assay; assay type: functional, cell-based; details: PC-3, 96 h
[8] = molecular target: T1, Tyrosine-protein kinase JAK3 (Homo sapiens, UniProt P52333); assay: Inhibition of JAK3 (unknown origin)
T1 sequence (P52333 whole entry): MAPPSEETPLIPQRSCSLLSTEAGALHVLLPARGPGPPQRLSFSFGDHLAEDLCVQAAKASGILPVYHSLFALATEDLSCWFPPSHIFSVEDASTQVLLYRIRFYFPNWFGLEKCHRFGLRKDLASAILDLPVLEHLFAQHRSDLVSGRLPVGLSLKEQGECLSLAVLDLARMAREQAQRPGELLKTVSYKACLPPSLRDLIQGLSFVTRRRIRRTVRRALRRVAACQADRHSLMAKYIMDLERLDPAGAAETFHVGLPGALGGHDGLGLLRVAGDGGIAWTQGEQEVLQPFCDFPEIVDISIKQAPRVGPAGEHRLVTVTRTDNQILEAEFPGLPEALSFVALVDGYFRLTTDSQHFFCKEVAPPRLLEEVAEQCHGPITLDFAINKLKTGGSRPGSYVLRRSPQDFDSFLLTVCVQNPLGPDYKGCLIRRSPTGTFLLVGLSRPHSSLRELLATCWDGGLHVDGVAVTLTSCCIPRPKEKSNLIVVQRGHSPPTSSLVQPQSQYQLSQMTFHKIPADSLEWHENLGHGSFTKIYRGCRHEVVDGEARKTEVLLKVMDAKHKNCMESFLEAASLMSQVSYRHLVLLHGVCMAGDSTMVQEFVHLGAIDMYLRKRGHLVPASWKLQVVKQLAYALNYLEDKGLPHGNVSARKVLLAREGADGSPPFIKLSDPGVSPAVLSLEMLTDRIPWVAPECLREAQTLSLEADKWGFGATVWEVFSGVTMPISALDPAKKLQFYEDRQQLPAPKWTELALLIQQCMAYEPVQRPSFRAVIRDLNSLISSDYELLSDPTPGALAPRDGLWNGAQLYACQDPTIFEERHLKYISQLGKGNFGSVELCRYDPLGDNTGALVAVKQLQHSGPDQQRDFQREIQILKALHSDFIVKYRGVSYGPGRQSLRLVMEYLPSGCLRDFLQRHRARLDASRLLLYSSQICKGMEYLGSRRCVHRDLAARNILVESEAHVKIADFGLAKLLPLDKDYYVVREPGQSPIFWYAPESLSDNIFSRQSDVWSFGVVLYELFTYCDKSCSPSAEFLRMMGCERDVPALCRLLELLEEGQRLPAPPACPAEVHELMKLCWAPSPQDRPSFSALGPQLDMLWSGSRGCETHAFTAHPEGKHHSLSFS

[9] = system: MDA-MB-435; assay: Antiproliferative activity against human MDA-MB-435 cells assessed as inhibition of cell proliferation incubated for 48 hrs by cell-titer-Glo reagent based assay; assay type: functional; details: MDA-MB-435, 48 h
[10] = system: NCI-H1299; assay: Antiproliferative activity against human NCI-H1299 cells assessed as inhibition of cell proliferation incubated for 48 hrs by cell-titer-Glo reagent based assay; assay type: functional; details: NCI-H1299, 48 h
[11] = system: T47D; assay: Antiproliferative activity against human T47D cells assessed as inhibition of cell proliferation incubated for 48 hrs by cell-titer-Glo reagent based assay; assay type: functional
[12] = system: MX1; assay: Antiproliferative activity against human MX1 cells assessed as inhibition of cell proliferation incubated for 48 hrs by cell-titer-Glo reagent based assay; assay type: functional; details: MX1, 48 h
[13] = molecular target: Caspase; assay: Activation of caspase cascade in human T47D cells using N-(Ac-DEVD)-N'-ethoxycarbonyl-R110 fluorogenic substrate incubated for 48 hrs by fluorescent plate reader based assay; assay type: cell-based
[14] = system: HT-29; assay: Antiproliferative activity against human HT-29 cells assessed as inhibition of cell proliferation incubated for 48 hrs by cell-titer-Glo reagent based assay; assay type: functional; details: HT-29, 48 h
[15] = Inhibition of binding of beta-FGF to heparin pre-incubated with beta-FGF prior to application to plate for 45 mins by ELISA
[16] = Inhibition of binding of vascular endothelial growth factor to heparin pre-incubated with VEGF prior to application to plates for 45 mins by ELISA
[17] = system: MCF7; assay: Antiproliferative activity against human MCF7 cells assessed as cell survival at 25 ug/ml relative to untreated control; assay type: functional; details: read-out: Survival
[18] = molecular target: Epidermal growth factor receptor (Homo sapiens, UniProt P00533); assay: Inhibition of EGFR (unknown origin)
Sequence of Epidermal growth factor receptor (P00533 whole entry): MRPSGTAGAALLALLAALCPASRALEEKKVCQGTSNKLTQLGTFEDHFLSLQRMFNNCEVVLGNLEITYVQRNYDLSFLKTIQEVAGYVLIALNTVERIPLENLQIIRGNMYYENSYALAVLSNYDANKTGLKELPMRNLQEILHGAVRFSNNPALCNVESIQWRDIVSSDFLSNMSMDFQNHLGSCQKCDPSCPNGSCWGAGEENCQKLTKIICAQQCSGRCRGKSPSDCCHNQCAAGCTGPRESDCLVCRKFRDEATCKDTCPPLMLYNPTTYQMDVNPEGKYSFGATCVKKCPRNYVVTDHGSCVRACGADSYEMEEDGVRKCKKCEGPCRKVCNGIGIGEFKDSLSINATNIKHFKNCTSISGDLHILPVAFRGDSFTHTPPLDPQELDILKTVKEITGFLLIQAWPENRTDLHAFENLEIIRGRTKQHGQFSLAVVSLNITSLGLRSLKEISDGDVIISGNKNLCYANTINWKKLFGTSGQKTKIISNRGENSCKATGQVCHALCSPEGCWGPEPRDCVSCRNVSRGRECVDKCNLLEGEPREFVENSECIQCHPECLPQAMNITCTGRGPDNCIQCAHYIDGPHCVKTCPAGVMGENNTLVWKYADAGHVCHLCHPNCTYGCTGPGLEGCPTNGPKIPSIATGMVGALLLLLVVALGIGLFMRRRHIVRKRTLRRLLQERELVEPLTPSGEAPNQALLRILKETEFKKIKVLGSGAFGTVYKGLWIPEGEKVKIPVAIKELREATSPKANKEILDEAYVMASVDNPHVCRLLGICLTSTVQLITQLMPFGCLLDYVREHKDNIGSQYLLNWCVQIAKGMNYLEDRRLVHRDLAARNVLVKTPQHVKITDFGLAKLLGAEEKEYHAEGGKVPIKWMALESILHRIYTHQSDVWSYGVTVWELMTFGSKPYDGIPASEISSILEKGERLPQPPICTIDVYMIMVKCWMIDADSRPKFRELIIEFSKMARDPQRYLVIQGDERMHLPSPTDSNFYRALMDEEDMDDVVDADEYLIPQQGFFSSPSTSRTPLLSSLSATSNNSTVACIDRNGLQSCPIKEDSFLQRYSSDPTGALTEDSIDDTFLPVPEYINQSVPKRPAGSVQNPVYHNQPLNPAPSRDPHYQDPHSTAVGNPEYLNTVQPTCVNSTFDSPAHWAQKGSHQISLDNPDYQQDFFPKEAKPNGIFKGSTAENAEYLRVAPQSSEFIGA

[19] = system: MCF7; assay: Cytotoxic activity against human MCF7 cells; assay type: functional, cell-based

COc1cc([C@@H](CN2CCC2)Nc2nnnc3c(C(N)=O)cccc23)ccc1Cl
IC50 [1]: < 0.025 µM

CCCCCOc1cc2nnnc(Nc3ccc(OC(F)(F)F)cc3)c2cc1OC
GI50 [2]: 38 µM

NC(=O)c1cccc2c(NCc3cccc(C(F)(F)F)c3)nnnc12
IC50 [1]: 0.101 to 0.5 µM

NC(=O)c1cccc2c(NCc3cccc(F)c3)nnnc12
IC50 [1]: 0.501 to 1 µM

CCOc1cc2nnnc(Nc3ccc(F)c(Cl)c3)c2cc1OC
GI50 [2]: 38.8 µM

NC(=O)c1cccc2c(NCc3ccc(C(F)(F)F)cc3)nnnc12
IC50 [1]: 0.025 to 0.1 µM

CC1(C)Cc2c(c(N3CCOCC3)nc3sc4c(NNc5ccccc5)nnnc4c23)CO1
MTD [3]: 2000 mg/kg

COc1cc2c(Nc3cc(Cl)cc(Cl)c3)nnnc2cc1OCCCCl
GI50 [2]: 28.8 µM

COc1cc2c(Nc3ccc(OC(F)(F)F)cc3)nnnc2cc1OCCCCl
GI50 [2]: 23.2 µM

COc1cc2c(Nc3ccccc3)nnnc2cc1OCCCCl
GI50 [2]: > 80 µM

CN(C)C[C@@H](Nc1nnnc2c(C(N)=O)cccc12)c1ccc(Cl)c(C#N)c1
IC50 [1]: 0.025 to 0.1 µM

CCCCCOc1cc2nnnc(Nc3cccc(OC(F)(F)F)c3)c2cc1OC
GI50 [2]: 42.6 µM

C=CCNc1nnnc2c1sc1nc(N3CCOCC3)c3c(c12)CC(C)(C)OC3
MTD [3]: 2000 mg/kg

COc1cc2c(Nc3ccc(F)c(Cl)c3)nnnc2cc1OCCCCl
IC50 [4]: 3.79 to 6.91 µM | IC50 [5]: 3.79 to 6.91 µM | GI50 [2]: 7.98 µM | IC50 [6]: 3.79 to 6.91 µM | IC50 [7]: 3.79 to 6.91 µM

CCOc1cc2nnnc(Nc3ccc(Cl)cc3)c2cc1OC
GI50 [2]: 26.5 µM

c1ccc(NNc2nnnc3c2sc2nc(N4CCOCC4)c4c(c23)CCCC4)cc1
MTD [3]: 2000 mg/kg

NC(=O)c1cccc2c(NCc3ccc(Cl)c(C(F)(F)F)c3)nnnc12
IC50 [1]: < 0.025 µM

COc1cc2c(Nc3cccc(OC(F)(F)F)c3)nnnc2cc1OCCCCl
GI50 [2]: 24.9 µM

NNc1nnnc2c1sc1nc(N3CCOCC3)c3c(c12)CCCC3
MTD [3]: 2000 mg/kg

CCCCCCNc1nnnc2c1sc1nc(N3CCOCC3)c3c(c12)CC(C)(C)OC3
MTD [3]: 2000 mg/kg

CN(C)C[C@@H](Nc1nnnc2c(C(N)=O)cccc12)c1ccc(Cl)c(Cl)c1
IC50 [1]: < 0.025 µM

CCOc1cc2nnnc(Nc3ccc(C)cc3)c2cc1OC
GI50 [2]: 42.6 µM

COc1cc2c(Nc3cccc(C(F)(F)F)c3)nnnc2cc1OCCCCl
GI50 [2]: 21.4 µM

CCN(CC)CCNc1nnnc2c1sc1nc(N3CCOCC3)c3c(c12)CC(C)(C)OC3
MTD [3]: 2000 mg/kg

NC(=O)c1cccc2c(N[C@H](CN3CCC3)c3ccc(Cl)c(Cl)c3)nnnc12
IC50 [1]: < 0.025 µM

CC1(C)Cc2c(c(N3CCOCC3)nc3sc4c(NN)nnnc4c23)CO1
MTD [3]: 2000 mg/kg

NC(=O)c1c[nH]c2nnnc(O)c12
IC50 [8]: < 10 µM

COc1cc2c(Nc3ccc(F)cc3)nnnc2cc1OCCCCl
GI50 [2]: 23.1 µM

NC(=O)c1cccc2c(NCc3ccccn3)nnnc12
IC50 [1]: > 1 µM

NC(=O)c1cccc2c(NCc3cc(C(F)(F)F)ccn3)nnnc12
IC50 [1]: > 1 µM

NC(=O)c1cccc2c(NCc3cccnc3)nnnc12
IC50 [1]: > 1 µM

COc1ccc(N(C)c2nnnc3ccccc23)cc1
IC50 [9]: 0.007 to 0.05 µM | IC50 [10]: 0.007 to 0.05 µM | IC50 [11]: 0.007 to 0.05 µM | IC50 [12]: 0.007 to 0.05 µM | EC50 [13]: 0.016 µM | IC50 [14]: 0.007 to 0.05 µM

COc1cc([C@@H](CN(C)C)Nc2nnnc3c(C(N)=O)cccc23)ccc1Cl
IC50 [1]: 0.025 to 0.1 µM

NC(=O)c1cccc2c(NCc3ccccc3)nnnc12
IC50 [1]: 0.501 to 1 µM

N#Cc1cc([C@@H](CN2CCC2)Nc2nnnc3c(C(N)=O)cccc23)ccc1Cl
IC50 [1]: < 0.025 µM

COc1cc2c(Nc3ccc(Cl)cc3)nnnc2cc1OCCCCl
GI50 [2]: 18.6 µM

CC(C)(CC(=O)On1nnc2ccccc2c1=O)CN1C(=O)c2cc3oc(-c4ccc(Cl)cc4)cc3n2C1=S
IC50 [15]: 0.16 µM | IC50 [16]: 0.26 µM

NC(=O)c1cccc2c(N[C@H](CN3CCC3)c3ccc(Cl)c(C(F)(F)F)c3)nnnc12
IC50 [1]: < 0.025 µM

CC1(C)Cc2c(c(N3CCOCC3)nc3sc4c(N(Cc5ccccc5)Cc5ccccc5)nnnc4c23)CO1
MTD [3]: 2000 mg/kg

CN(C)C[C@@H](Nc1nnnc2c(C(N)=O)cccc12)c1ccc(Cl)c(C(F)(F)F)c1
IC50 [1]: < 0.025 µM

NC(=O)c1cccc2c(NCc3ccc(Cl)c(Cl)c3)nnnc12
IC50 [1]: < 0.025 µM

CC1(C)Cc2c(c(N3CCOCC3)nc3sc4c(Cl)nnnc4c23)CO1
MTD [3]: 2000 mg/kg

COc1cc2c(Nc3ccc(C)cc3)nnnc2cc1OCCCCl
GI50 [2]: 17.1 µM

COc1cc2c(Nc3ccc(F)c(C(F)(F)F)c3)nnnc2cc1OCCCCl
GI50 [2]: 15.2 µM

Clc1nnnc2c1sc1nc(N3CCOCC3)c3c(c12)CCCC3
MTD [3]: 2000 mg/kg

Oc1cccc(Nc2nnnc3sc4c(c23)CCC4)c1
viability at 25 µg/mL [17]: 12% | IC50 [18]: 52.1 µM

CC(C)CCNc1nnnc2c1sc1nc(N3CCOCC3)c3c(c12)CC(C)(C)OC3
MTD [3]: 2000 mg/kg

O=c1[nH]nnc2c1C1C(=Cc3ccccc31)S2 (stereo not drawn)
IC50 [19]: 6 µg/mL (≈ 24.9 µM)

COc1cc2c(Nc3ccc(Cl)c(Cl)c3)nnnc2cc1OCCCCl
GI50 [2]: 11 µM

Clc1ccc(Nc2nnnc3ccccc23)cc1
GI50 [2]: > 80 µM

CC(C)CCNc1nnnc2c1sc1nc(N3CCOCC3)c3c(c12)CCCC3
MTD [3]: 2000 mg/kg

CC1(C)Cc2c(c(N3CCOCC3)nc3sc4c(N5CCNCC5)nnnc4c23)CO1
MTD [3]: 2000 mg/kg

NC(=O)c1cccc2c(N[C@H](CN3CCC3)c3ccc(F)c(C(F)(F)F)c3)nnnc12
IC50 [1]: < 0.025 µM

c1coc(CNc2nnnc3c2sc2nc(N4CCOCC4)c4c(c23)CCCC4)c1
MTD [3]: 2000 mg/kg

CCCCCOc1cc2nnnc(Nc3ccc(Cl)cc3)c2cc1OC
GI50 [2]: 25.4 µM

Oc1ccc(Nc2nnnc3sc4c(c23)CCC4)cc1
viability at 25 µg/mL [17]: 13% | IC50 [18]: 38.7 µM
